From patent US20230025843A1, “MAMMAL KINASE INHIBITORS TO PROMOTE IN VITRO EMBRYOGENESIS INDUCTION OF PLANTS” (CONSEJO SUPERIOR DE INVESTIGACIONES CIENTIFICAS (CSIC), priority 2019, published 2023)
Where “and” joins values, the source holds several entries; their conditions need not be identical. Identical values can stand only once.

Legend:
Assay type in all cases: cell-based
[1] = tested on: B. napus microspore cultures; test: Microspore embryogenesis induction in isolated microspore culture (proembryos at 4 days), liquid medium; details: for concentrations that provided an improvement of embryogenesis initiation yield: B. napus microspore cultures, proembryos at 4 days vs control, 3-4 concentrations tested; for increase in the percentage of proembryos: 4 days, vs control cultures normalized to 100%
Description: B. napus L. (rapeseed) cv. ‘Topas’ line DH407 plants were used as donor plants. Rapeseed seeds were germinated and grew under controlled conditions (relative humidity 60%, 15° C. under long-day photoperiod 16 h light and 8 h dark at 10° C.) in a growth chamber in pots containing a mixture of organic substrate and vermiculite (2/1, v/v).
Flower buds containing vacuolated microspores, the most responsive stage for microspore induction, were isolated for microspore culture as previously described (Prem et al., 2012 BMC Plant Biology 12, 127). The selected buds were surface-sterilized in 5.0% (v/v) commercial bleach (5% active chlorine) for 20 min and then rinsed 6-7 times with sterile distilled water. Ten to 15 buds were crushed using a cold mortar and pestle in 5 ml of cold NLN-13 medium containing 13% sucrose (w/v). The suspension was filtered through 48 μm nylon mesh and the filtrate collected in 15-ml falcon centrifuge tubes. The crushed buds were rinsed with 5 ml NLN-13 to make up the volume to 10 ml and the filtrate was then centrifuged at 1100 rpm for 5 min at 4° C. The pellet was re-suspended in 10 ml of cold NLN-13 and centrifuged as mentioned above. This process was repeated three times for washing of the microspores. The final pellet was suspended in the NLN-13, and the cell density was adjusted to 10,000 cells per ml. The cell suspension was then poured into 90-mm Petri dishes (10 ml per Petri dish) and cultured in darkness. For embryogenesis induction, microspore cultures were subjected to an in vitro stress treatment of 32° C. for 15 days. In response to the inductive treatment, responsive microspores divide and produce multicellular structures or proembryos, still confined within the microspore wall (exine). Such structures are considered to be the first sign of embryogenesis initiation; they can be found after 4-6 days in culture. When globular/heart shaped embryos were observed (around 20 days), cultures were shifted to 25° C. on a gyratory shaker at 60 rpm until complete development and maturation of the embryos was observed (FIG. 1), normally around 30 days in culture.
The compounds were added to the microspore liquid culture media by using stock solutions of 10 mM in DMSO. Appropriate volumes of stock solutions of the drugs were added to the culture media to get the selected working concentrations of the inhibitors, keeping DMSO concentration below 0.2%. • In B. napus microspore cultures: 4-benzyl-2-methyl-1,2,4-thiadozilidine-3,5-dione (TDZD8), 5-(2-Morpholinethylimino)-2,3-diphenyl-2,5-dihydro-1,2,4-thiadiazole (VP3.15), 3-acetyl-4-(1-methyl-1H-indol-3-yl)-1H-pirrol-2,5-dione (VP3.36), 4-hydroxy-1-ethyl-N′-palmitoyl-2-oxo-1,2-dihydroquinoline-3-carbohydrazide (VP0.7), N-(6-methylbenzothiazole-2-yl)-4-morpholinobenzamide (JZ1.3), N-(6-fluorobenzothiazole-2-yl)-4-morpholinobenzamide, (JZ1.6) and N-(6-bromobenzothiazole-2-yl)-4-morpholinobenzamide (JZ1.24). and (E,Z)-3-(morpholinoimino)indolin-2-one (IGS4.75) were tested at 3-4 different concentrations, ranging from 0.5 to 5 μM. • In H. vulgare microspore cultures: 4-benzyl-2-methyl-1,2,4-thiadozilidine-3,5-dione (TDZD8) and N-(6-bromobenzothiazole-2-yl)-4-morpholinobenzamide (JZ1.24) inhibitors at the selected concentrations (2.5 μM and […], respectively) were tested.
The compounds were added from culture initiation and their effect on embryogenesis efficiency was assessed. Several plates of the same cultures were kept without the inhibitors, as controls.
Embryogenesis induction was quantified in control and treated-cultures by the number of proembryos formed (considered the first sign of embryogenesis initiation), as previously described, and by the number of embryos produced after 40 days. Proembryos were easily identified under inverted microscope in 4 day-culture plates as rounded multicellular structures with higher size and density than microspores, still surrounded by the exine (special microspore wall). […]

[2] = tested on: H. vulgare microspore cultures; test: Microspore embryogenesis induction in isolated microspore culture (proembryos at 4 days, embryos at 40 days), liquid medium; details: for increase in proembryo formation: 4 days; for increment of total number of embryos produced per plate: 40 days, vs control, selected concentrations (2.5 μM TDZD8, 5 μM JZ1.24)
Description: H. vulgare L. cv. Igri plants were used as donor plants. Seeds were vernalized in soil for one month at 4° C., and then transferred for one month in a plant growth chamber at 18° C. for germination and growth. Finally, plants were transferred to a greenhouse under 18° C. temperature.
Spikes containing microspores at the stage of vacuolated microspore, the most responsive stage for embryogenesis induction, were collected and surface sterilized by immersion in 5% bleach for 20 min, followed by 4 washes with sterile distilled water. Isolated microspore culture was settled as previously described (Rodŕiguez-Serrano et al., 2012, Journal of Experimental Botany 63(5), 2007-2024). The sterilized spikes were pre-treated at 4° C. for 21-24 days as stress treatment to induce microspore embryogenesis. Microspore were isolated blending spikes in 20 ml of pre-cooled 0.4 M mannitol at 4° C., using a Waring Blender pre-cooled in a refrigerator at −20° C., and the extract was filtered through a 100 μm nylon mesh into a beaker pre-cooled at −20° C. The collected microspore suspension was transferred into a 50 ml tube and centrifuged at 800 rpm for 10 min at 4° C. After removing the supernatant, the pellet was resuspended in 4 ml of pre-cooled 0.55 M maltose and transferred in 15 ml falcon tube. 1.5 ml of 0.4 M mannitol solution were cautiously added unmixed. After gradient centrifugation at 800 rpm for 10 min at 4° C., the interphase band consisting of an almost pure population of vacuolated microspores was resuspended in 0.4M mannitol solution giving a final volume of 10 ml. After counting cells in the Neubauer chamber, the pelleted microspores were diluted in an appropriate volume of KBP medium to obtain a cell density of 1.1×10^5 cells per ml, and plated in 30 mm Petri dishes, at a volume of 1 ml per plate. Then, microspore cultures were incubated at 25° C. in the dark, and microspores reprogrammed and produced multicellular structures/proembryos that can be found after 4-6 days in culture, as the first sign of embryogenesis initiation. Proembryos further developed and produced coleoptylar and mature embryos (FIG. 2), which were observed after 30 days.
The compounds were added to the microspore liquid culture media by using stock solutions of 10 mM in DMSO. […]
The compounds were added from culture initiation and their effect on embryogenesis efficiency was assessed. […]
Embryogenesis induction was quantified in control and treated-cultures by the number of proembryos formed (considered the first sign of embryogenesis initiation), as previously described, and by the number of embryos produced after 40 days. […]

[3] = tested on: proembryos of B. napus microspore cultures; test: DAPI staining of proembryos, fluorescence microscopy of squash preparations; details: 4 days in culture
Description: In order to evaluate whether proembryo structures of treated cultures, identified under the inverted microscope for quantification, were actually dividing microspores, similar to the same structures in control cultures, a simply staining technique was performed to visualize nuclei inside proembryos. Samples from control and treated-cultures of 4 days, containing proembryos, were stained with 10 μg/mL 4′,6-diamidine-2-phenyl indole dihydrochloride (DAPI). Squash preparations were analysed under fluorescence microscopy using UV excitation for observing nuclei.

Compound	concentrations that provided an improvement of embryogenesis initiation yield [1]	other results
O=C1Nc2ccccc2C1=NN1CCOCC1 [IGS4.75, (E,Z)-3-(morpholinoimino)indolin-2-one]	5 µM	
Cn1sc(=O)n(Cc2ccccc2)c1=O [TDZD8, 4-benzyl-2-methyl-1,2,4-thiadozilidine-3,5-dione, reference compound]	0.5 µM and 1 µM	increase in the percentage of proembryos ([1]; 0.5 μM): 20%; increase in proembryo formation ([2]; 2.5 μM): 27%; increment of total number of embryos produced per plate [2]: 15%; nuclei in proembryos (DAPI staining) [3]: proembryos contain several nuclei
c1ccc(-c2nc(=NCCN3CCOCC3)sn2-c2ccccc2)cc1 [VP3.15, 5-(2-Morpholinethylimino)-2,3-diphenyl-2,5-dihydro-1,2,4-thiadiazole]	2.5 µM	
CCCCCCCCCCCCCCCC(=O)NNC(=O)c1c(O)c2ccccc2n(CC)c1=O [VP0.7, 4-hydroxy-1-ethyl-N′-palmitoyl-2-oxo-1,2-dihydroquinoline-3-carbohydrazide]	5 µM	
CC(=O)C1=C(c2cn(C)c3ccccc23)C(=O)NC1=O [VP3.36, 3-acetyl-4-(1-methyl-1H-indol-3-yl)-1H-pirrol-2,5-dione]	2.5 µM	
Cc1ccc2nc(NC(=O)c3ccc(N4CCOCC4)cc3)sc2c1 [JZ1.3, N-(6-methylbenzothiazole-2-yl)-4-morpholinobenzamide]	5 µM	
O=C(Nc1nc2ccc(F)cc2s1)c1ccc(N2CCOCC2)cc1 [JZ1.6, N-(6-fluorobenzothiazole-2-yl)-4-morpholinobenzamide]	1 µM	
O=C(Nc1nc2ccc(Br)cc2s1)c1ccc(N2CCOCC2)cc1 [JZ1.24, N-(6-bromobenzothiazole-2-yl)-4-morpholinobenzamide]	2.5 µM	increase in the percentage of proembryos ([1]; 2.5 μM): 27.5%; increase in proembryo formation ([2]; 5 μM): 47%; increment of total number of embryos produced per plate [2]: 22%
